Consider seven molecules from PMC7939381, “MMP activation–associated aminopeptidase N reveals a bivalent 14-3-3 binding motif” (The Journal of Biological Chemistry, 2021).

The target of test [1] is T1, 14-3-3η (Homo sapiens, UniProt Q04917).
T1 construct: N-terminally His6-tagged 14-3-3 full-length proteins were expressed with heterologous bacterial expression; made in house
T1 sequence (Q04917 1-246): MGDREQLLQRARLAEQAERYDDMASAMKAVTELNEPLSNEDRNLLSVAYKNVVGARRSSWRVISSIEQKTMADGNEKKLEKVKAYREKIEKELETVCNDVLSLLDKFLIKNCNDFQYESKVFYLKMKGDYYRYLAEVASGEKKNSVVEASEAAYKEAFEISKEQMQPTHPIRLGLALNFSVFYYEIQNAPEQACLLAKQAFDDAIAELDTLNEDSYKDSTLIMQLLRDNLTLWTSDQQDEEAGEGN
Kind of test: isothermal titration calorimetry (ITC) with 14-3-3η. The test is classed as binding. The method, then: The ITC experiments were performed on an automated MicroCal iTC200 (Malvern Panalytical). To prepare 14-3-3 proteins for ITC measurements, a buffer exchange to ITC buffer (50 mM HEPES, pH 7.4, 250 mM NaCl, 20 mM MgCl2) was performed on a Superdex 75 10/300 GL column (ÄKTA Pure FPLC system, GE Healthcare). For peptides 1, 7, and 17, a 500 μM solution of protein was titrated to a 50 μM solution of peptide in 18 steps (2-μl volume in 4 s, 180-s spacing) at 25 °C. For peptide 11, a 250 μM solution of protein was titrated to a 12.5 μM solution of peptide with the settings mentioned before. The reference power was set to […], and the stirring speed was set to 750 rpm. Analysis was performed using MicroCal ITC-ORIGIN analysis software.
On the technique in general: In ITC the heat of successive injections is recorded.

For test [2], the target named is T1, 14-3-3η. Kind of test: direct binding FP assay, 14-3-3η. The following applies: FITC-labeled peptide; FP buffer pH 7.4; 60 min room temperature; mean ± S.D., n = 3; values for 14-16 are estimated (Fig. S4); read-out: KD toward 14-3-3η (FP assay). The method, then:
For the FP assay, the 14-3-3 proteins were diluted to a protein-specific start concentration in FP buffer (10 mM HEPES, pH 7.4, 150 mM NaCl, 2 mM DTT, 0.01% Tween 20). DMSO stocks of peptides were diluted in FP buffer to a concentration of 30 nM. For the assay, 10 μl of FP buffer were pipetted in 20 wells of a 384-well Corning black round bottom plate. A dilution series with 10 μl of protein solution was performed, and 5 μl of peptide solution was added to each well for a final volume of 15 μl. The plate was incubated for 60 min at room temperature. Measurement was performed at 25 °C in a Tecan Spark20M plate reader (λex = 470 nm, λem = 525 nm). Data analysis was performed with GraphPad Prism (version 5.03), and KD values were determined via a nonlinear regression fit of dose-response curves with variable slope (four parameters).

As a reminder, the Kd is a measure of binding affinity in units of concentration.

Where a SMILES comes first, the peptide text is derived from it. [ ]: non-standard residue; d: D form. pT = C[C@@H](OP(=O)(O)O)[C@H](N)C(=O)O; pS = N[C@@H](COP(=O)(O)O)C(=O)O Some results are limits rather than exact numbers.

Consider `CC(=O)N[C@@H](CCC(=O)O)C(=O)N[C@@H](CCCCN)C(=O)N[C@@H](CC(N)=O)C(=O)N[C@@H](CCCCN)C(=O)N[C@@H](CC(N)=O)C(=O)N[C@@H](C)C(=O)N[C@@H](CC(N)=O)C(=O)N[C@@H](COP(=O)(O)O)C(=O)N[C@@H](CO)C(=O)N1CCC[C@H]1C(=O)N[C@H](C(=O)N[C@@H](C)C(=O)N[C@@H](CO)C(=O)N[C@H](C(=O)N[C@H](C(=O)N1CCC[C@H]1C(=O)N[C@@H](CO)C(=O)N[C@@H](C)C(=O)N[C@@H](CO)C(=O)N[C@@H](C)C(=O)N[C@H](C(=O)N[C@H](C(=O)N[C@@H](CC(N)=O)C(=O)N1CCC[C@H]1C(=O)N[C@@H](C)C(=O)N[C@@H](CO)C(=O)N[C@@H](C)C(=O)N[C@H](C(=O)N[C@H](C(=O)N[C@@H](CC(C)C)C(=O)N[C@@H](CC(=O)O)C(=O)N[C@@H](CCC(N)=O)C(=O)N[C@@H](CO)C(=O)N[C@@H](CCCCN)C(=O)N[C@@H](C)C(=O)N[C@@H](Cc1c[nH]c2ccccc12)C(=O)N[C@@H](CC(N)=O)C(=O)N[C@@H](CCCNC(=N)N)C(=O)O)[C@@H](C)O)[C@@H](C)O)[C@@H](C)O)[C@@H](C)O)[C@@H](C)O)[C@@H](C)O)C(C)C` [compound 7] (Ac-EKNKNAN[pS]SPVASTTPSASATTNPASATTLDQSKAWNR-OH), for which, at 14-3-3η [1] (T = 298 K, peptide per 14-3-3 protomer, mean ± S.D., n = 3), the “binding stoichiometry N (ITC, 14-3-3η)” value stood at 1.13 ± 0.18.

For the molecule `CC(C)C[C@H](NC(=O)[C@@H](NC(=O)[C@@H](NC(=O)[C@H](C)NC(=O)[C@H](COP(=O)(O)O)NC(=O)[C@H](C)NC(=O)[C@@H]1CCCN1C(=O)[C@H](CC(N)=O)NC(=O)[C@@H](NC(=O)[C@@H](NC(=O)[C@H](C)NC(=O)[C@H](CO)NC(=O)[C@H](C)NC(=O)[C@H](CO)NC(=O)[C@@H]1CCCN1C(=O)[C@@H](NC(=O)[C@@H](NC(=O)[C@H](CO)NC(=O)[C@H](C)NC(=O)[C@@H](NC(=O)[C@@H]1CCCN1C(=O)[C@H](CO)NC(=O)[C@H](COP(=O)(O)O)NC(=O)[C@H](CC(N)=O)NC(=O)[C@H](C)NC(=O)[C@H](CC(N)=O)NC(=O)[C@H](CCCCN)NC(=O)[C@H](CC(N)=O)NC(=O)[C@H](CCCCN)NC(=O)[C@@H](N)CCC(=O)O)C(C)C)[C@@H](C)O)[C@@H](C)O)[C@@H](C)O)[C@@H](C)O)[C@@H](C)O)[C@@H](C)O)C(=O)N[C@@H](CC(=O)O)C(=O)N[C@@H](CCC(N)=O)C(=O)N[C@@H](CO)C(=O)N[C@@H](CCCCN)C(=O)N[C@@H](C)C(=O)N[C@@H](Cc1c[nH]c2ccccc12)C(=O)N[C@@H](CC(N)=O)C(=O)N[C@@H](CCCNC(=N)N)C(=O)O` [compound 10] (H-EKNKNAN[pS]SPVASTTPSASATTNPA[pS]ATTLDQSKAWNR-OH), the dissociation constant Kd at 14-3-3η [2] was 0.42 ± 0.03 µM.

Turning to `CC(C)C[C@H](NC(=O)[C@@H](NC(=O)[C@@H](NC(=O)[C@H](C)NC(=O)[C@H](CO)NC(=O)[C@H](C)NC(=O)[C@@H]1CCCN1C(=O)[C@H](CC(N)=O)NC(=O)[C@@H](NC(=O)[C@@H](NC(=O)[C@H](C)NC(=O)[C@H](CO)NC(=O)[C@H](C)NC(=O)[C@H](CO)NC(=O)[C@@H]1CCCN1C(=O)[C@@H](NC(=O)[C@@H](NC(=O)[C@H](CO)NC(=O)[C@H](C)NC(=O)[C@@H](NC(=O)[C@@H]1CCCN1C(=O)[C@H](CO)NC(=O)[C@H](COP(=O)(O)O)NC(=O)[C@H](CC(N)=O)NC(=O)[C@H](C)NC(=O)[C@H](CC(N)=O)NC(=O)[C@H](CCCCN)NC(=O)[C@H](CC(N)=O)NC(=O)[C@H](CCCCN)NC(=O)[C@@H](N)CCC(=O)O)C(C)C)[C@@H](C)O)[C@@H](C)O)[C@@H](C)OP(=O)(O)O)[C@@H](C)O)[C@@H](C)O)[C@@H](C)O)C(=O)N[C@@H](CC(=O)O)C(=O)N[C@@H](CCC(N)=O)C(=O)N[C@@H](CO)C(=O)N[C@@H](CCCCN)C(=O)N[C@@H](C)C(=O)N[C@@H](Cc1c[nH]c2ccccc12)C(=O)N[C@@H](CC(N)=O)C(=O)N[C@@H](CCCNC(=N)N)C(=O)O` [compound 8] (H-EKNKNAN[pS]SPVASTTPSASA[pT]TNPASATTLDQSKAWNR-OH), the Kd on 14-3-3η [2] is 18 ± 2.1 µM.

For “17: APN 36–73 pThr^63 peptide [compound 17]”, the “ITC result with 14-3-3η (in words)” value with 14-3-3η [1] (500 μM protein titrated to 50 μM peptide, 25 °C, Fig. S8) was “no heat change could be observed”.

`CC(C)C[C@H](NC(=O)[C@@H](NC(=O)[C@@H](NC(=O)[C@H](C)NC(=O)[C@H](CO)NC(=O)[C@H](C)NC(=O)[C@@H]1CCCN1C(=O)[C@H](CC(N)=O)NC(=O)[C@@H](NC(=O)[C@@H](NC(=O)[C@H](C)NC(=O)[C@H](CO)NC(=O)[C@H](C)NC(=O)[C@H](CO)NC(=O)[C@@H]1CCCN1C(=O)[C@@H](NC(=O)[C@@H](NC(=O)[C@H](CO)NC(=O)[C@H](C)NC(=O)[C@@H](NC(=O)[C@@H]1CCCN1C(=O)[C@H](CO)NC(=O)[C@H](COP(=O)(O)O)NC(=O)[C@H](CC(N)=O)NC(=O)[C@H](C)NC(=O)[C@H](CC(N)=O)NC(=O)[C@H](CCCCN)NC(=O)[C@H](CC(N)=O)NC(=O)[C@H](CCCCN)NC(=O)[C@@H](N)CCC(=O)O)C(C)C)[C@@H](C)O)[C@@H](C)O)[C@@H](C)O)[C@@H](C)O)[C@@H](C)O)[C@@H](C)OP(=O)(O)O)C(=O)N[C@@H](CC(=O)O)C(=O)N[C@@H](CCC(N)=O)C(=O)N[C@@H](CO)C(=O)N[C@@H](CCCCN)C(=O)N[C@@H](C)C(=O)N[C@@H](Cc1c[nH]c2ccccc12)C(=O)N[C@@H](CC(N)=O)C(=O)N[C@@H](CCCNC(=N)N)C(=O)O` [compound 12] (H-EKNKNAN[pS]SPVASTTPSASATTNPASAT[pT]LDQSKAWNR-OH): the Kd at 14-3-3η [2] is 0.18 ± 0.01 µM.

Turning to `CC(C)C[C@H](NC(=O)[C@@H](NC(=O)[C@@H](NC(=O)[C@H](C)NC(=O)[C@H](CO)NC(=O)[C@H](C)NC(=O)[C@@H]1CCCN1C(=O)[C@H](CC(N)=O)NC(=O)[C@@H](NC(=O)[C@@H](NC(=O)[C@H](C)NC(=O)[C@H](CO)NC(=O)[C@H](C)NC(=O)[C@H](CO)NC(=O)[C@@H]1CCCN1C(=O)[C@@H](NC(=O)[C@@H](NC(=O)[C@H](CO)NC(=O)[C@H](C)NC(=O)[C@@H](NC(=O)[C@@H]1CCCN1C(=O)[C@H](CO)NC(=O)[C@H](COP(=O)(O)O)NC(=O)[C@H](CC(N)=O)NC(=O)[C@H](C)NC(=O)[C@H](CC(N)=O)NC(=O)[C@H](CCCCN)NC(=O)[C@H](CC(N)=O)NC(=O)[C@H](CCCCN)NC(=O)[C@@H](N)CCC(=O)O)C(C)C)[C@@H](C)O)[C@@H](C)O)[C@@H](C)O)[C@@H](C)O)[C@@H](C)O)[C@@H](C)O)C(=O)N[C@@H](CC(=O)O)C(=O)N[C@@H](CCC(N)=O)C(=O)N[C@@H](COP(=O)(O)O)C(=O)N[C@@H](CCCCN)C(=O)N[C@@H](C)C(=O)N[C@@H](Cc1c[nH]c2ccccc12)C(=O)N[C@@H](CC(N)=O)C(=O)N[C@@H](CCCNC(=N)N)C(=O)O` [compound 13] (H-EKNKNAN[pS]SPVASTTPSASATTNPASATTLDQ[pS]KAWNR-OH; N-terminus assumed), the equilibrium dissociation constant (Kd) on 14-3-3η [2] is more than 83 µM.

With `CC(C)C[C@H](NC(=O)[C@@H](NC(=O)[C@@H](NC(=O)[C@H](C)NC(=O)[C@H](CO)NC(=O)[C@H](C)NC(=O)[C@@H]1CCCN1C(=O)[C@H](CC(N)=O)NC(=O)[C@@H](NC(=O)[C@@H](NC(=O)[C@H](C)NC(=O)[C@H](CO)NC(=O)[C@H](C)NC(=O)[C@H](CO)NC(=O)[C@@H]1CCCN1C(=O)[C@@H](NC(=O)[C@@H](NC(=O)[C@H](CO)NC(=O)[C@H](C)NC(=O)[C@@H](NC(=O)[C@@H]1CCCN1C(=O)[C@H](CO)NC(=O)[C@H](COP(=O)(O)O)NC(=O)[C@H](CC(N)=O)NC(=O)[C@H](C)NC(=O)[C@H](CC(N)=O)NC(=O)[C@H](CCCCN)NC(=O)[C@H](CC(N)=O)NC(=O)[C@H](CCCCN)NC(=O)[C@@H](N)CCC(=O)O)C(C)C)[C@@H](C)O)[C@@H](C)O)[C@@H](C)O)[C@@H](C)OP(=O)(O)O)[C@@H](C)O)[C@@H](C)O)C(=O)N[C@@H](CC(=O)O)C(=O)N[C@@H](CCC(N)=O)C(=O)N[C@@H](CO)C(=O)N[C@@H](CCCCN)C(=O)N[C@@H](C)C(=O)N[C@@H](Cc1c[nH]c2ccccc12)C(=O)N[C@@H](CC(N)=O)C(=O)N[C@@H](CCCNC(=N)N)C(=O)O` [compound 9] (H-EKNKNAN[pS]SPVASTTPSASAT[pT]NPASATTLDQSKAWNR-OH), the dissociation constant Kd at 14-3-3η [2] is 15 ± 1.5 µM.
